Reference: the supplement of paper PMC9663587

Experiments:
[1] = compound: CCN1CCN(Cc2ccc(Nc3ncc(F)c(-c4cc(F)c5nc(C)n(C(C)C)c5c4)n3)nc2)CC1; test: increase in dead-cell fraction, 72 h; higher = more death;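 further: breast cancer cell lines in 384-well plates, stained with Hoechst plus LIVE/DEAD far red dye and imaged, cells above an LDR intensity threshold counted dead, Hoechst-negative corpses included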
[2] = compound: T1, CN(C)C(=O)c1cc2cnc(Nc3ccc(N4CCNCC4)cn3)nc2n1C1CCCC1 [LEE011/Ribociclib]; test: as above
[3] = compound: T2, CN1CC[C@H](c2c(O)cc(O)c3c(=O)cc(-c4ccccc4Cl)oc23)[C@H](O)C1 [Flavopiridol]; test: as above
[4] = compound: CC(=O)c1c(C)c2cnc(Nc3ccc(N4CCNCC4)cn3)nc2n(C2CCCC2)c1=O; test: as above
[5] = compound: CCN1CCN(Cc2ccc(Nc3ncc(F)c(-c4cc(F)c5nc(C)n(C(C)C)c5c4)n3)nc2)CC1; test: GR value, 72 h; higher = faster growth (1 = untreated, <0 = killing);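 further: breast cancer and non-malignant breast epithelial lines, nine half-log doses, viable cells counted by Hoechst and LIVE/DEAD dye imaging versus time-zero plates and DMSO controls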
[6] = compound: CN(C)C/C=C/C(=O)Nc1ccc(C(=O)Nc2cccc(Nc3ncc(Cl)c(-c4c[nH]c5ccccc45)n3)c2)cc1 [THZ1]; test: as above
[7] = compound: T1, LEE011/Ribociclib; test: as above
[8] = compound: CCOc1cc2ncc(C#N)c(Nc3ccc(OCc4ccccn4)c(Cl)c3)c2cc1NC(=O)/C=C/CN(C)C [Neratinib/HKI272]; test: as above
[9] = compound: T2, Flavopiridol; test: as above
[10] = compound: CCc1cnn2c(NCc3ccc[n+]([O-])c3)cc(N3CCCC[C@H]3CCO)nc12; test: as above
[11] = compound: CC(=O)c1c(C)c2cnc(Nc3ccc(N4CCN(CCOCCOCCOCCNC(=O)COc5cccc6c5C(=O)N(C5CCC(=O)NC5=O)C6=O)CC4)cn3)nc2n(C2CCCC2)c1=O [BSJ-03-123]; test: as above
[12] = compound: CC(=O)c1c(C)c2cnc(Nc3ccc(N4CCNCC4)cn3)nc2n(C2CCCC2)c1=O; test: as above

MDAMB330
increase in dead-cell fraction ([1]; 0.001 µM): 0.0005 | increase in dead-cell fraction ([1]; 0.003162 µM): -0.0003 | increase in dead-cell fraction ([1]; 0.01 µM): 0.0039 | increase in dead-cell fraction ([1]; 0.03162 µM): 0.003 | increase in dead-cell fraction ([1]; 0.1 µM): 0.0014 | increase in dead-cell fraction ([1]; 0.3162 µM): 0.0018 | increase in dead-cell fraction ([1]; 1 µM): 0.0017 | increase in dead-cell fraction ([1]; 3.162 µM): 0.0048 | increase in dead-cell fraction ([1]; 10 µM): 0.0109 | increase in dead-cell fraction ([2]; 0.001 µM): 0.0031 | increase in dead-cell fraction ([2]; 0.003162 µM): 0.0013 | increase in dead-cell fraction ([2]; 0.01 µM): 0.0054 | increase in dead-cell fraction ([2]; 0.03162 µM): 0.0111 | increase in dead-cell fraction ([2]; 0.1 µM): 0.0037 | increase in dead-cell fraction ([2]; 0.3162 µM): -0.0005 | increase in dead-cell fraction ([2]; 1 µM): -0.0028 | increase in dead-cell fraction ([2]; 3.162 µM): 0.0128 | increase in dead-cell fraction ([2]; 10 µM): 0.0025 | increase in dead-cell fraction ([3]; 0.0001 µM): -0.0007 | increase in dead-cell fraction ([3]; 0.0003162 µM): 0.0052 | increase in dead-cell fraction ([3]; 0.001 µM): -0.0013 | increase in dead-cell fraction ([3]; 0.003162 µM): -0.0006 | increase in dead-cell fraction ([3]; 0.01 µM): -0.0015 | increase in dead-cell fraction ([3]; 0.03162 µM): 0.0024 | increase in dead-cell fraction ([3]; 0.1 µM): -0.0007 | increase in dead-cell fraction ([3]; 0.3162 µM): 0.0097 | increase in dead-cell fraction ([3]; 1 µM): 0.25 | increase in dead-cell fraction ([4]; 0.0003162 µM): -0.001 | increase in dead-cell fraction ([4]; 0.001 µM): -0.0006 | increase in dead-cell fraction ([4]; 0.003162 µM): -0.001 | increase in dead-cell fraction ([4]; 0.01 µM): -0.0033 | increase in dead-cell fraction ([4]; 0.03162 µM): -0.0012 | increase in dead-cell fraction ([4]; 0.1 µM): -0.0017 | increase in dead-cell fraction ([4]; 0.3162 µM): 0.0031 | increase in dead-cell fraction ([4]; 1 µM): 0.0053 | increase in dead-cell fraction ([4]; 3.162 µM): 0.0031 | GR value ([5]; 0.001 µM): 0.797 GR | GR value ([5]; 0.003162 µM): 0.615 GR | GR value ([5]; 0.01 µM): 0.306 GR | GR value ([5]; 0.03162 µM): 0.178 GR | GR value ([5]; 0.1 µM): 0.197 GR | GR value ([5]; 0.3162 µM): 0.241 GR | GR value ([5]; 1 µM): 0.202 GR | GR value ([5]; 3.162 µM): 0.199 GR | GR value ([5]; 10 µM): -0.0587 GR | GR value ([6]; 0.0001 µM): 1.19 GR | GR value ([6]; 0.0003162 µM): 0.925 GR | GR value ([6]; 0.001 µM): 1.1 GR | GR value ([6]; 0.003162 µM): 0.734 GR | GR value ([6]; 0.01 µM): 0.455 GR | GR value ([6]; 0.03162 µM): -0.545 GR | GR value ([6]; 0.1 µM): -0.924 GR | GR value ([6]; 0.3162 µM): -0.898 GR | GR value ([6]; 1 µM): -0.945 GR | GR value ([7]; 0.001 µM): 0.451 GR | GR value ([7]; 0.003162 µM): 0.229 GR | GR value ([7]; 0.01 µM): 0.361 GR | GR value ([7]; 0.03162 µM): 0.14 GR | GR value ([7]; 0.1 µM): 0.106 GR | GR value ([7]; 0.3162 µM): -0.116 GR | GR value ([7]; 1 µM): 0.15 GR | GR value ([7]; 3.162 µM): 0.292 GR | GR value ([7]; 10 µM): 0.293 GR | GR value ([8]; 0.0003162 µM): 0.967 GR | GR value ([8]; 0.001 µM): 0.831 GR | GR value ([8]; 0.003162 µM): 0.218 GR | GR value ([8]; 0.01 µM): -0.306 GR | GR value ([8]; 0.03162 µM): -0.546 GR | GR value ([8]; 0.1 µM): -0.592 GR | GR value ([8]; 0.3162 µM): -0.599 GR | GR value ([8]; 1 µM): -0.656 GR | GR value ([8]; 3.162 µM): -0.62 GR | GR value ([9]; 0.0001 µM): 0.986 GR | GR value ([9]; 0.0003162 µM): 0.935 GR | GR value ([9]; 0.001 µM): 1.03 GR | GR value ([9]; 0.003162 µM): 1.01 GR | GR value ([9]; 0.01 µM): 0.911 GR | GR value ([9]; 0.03162 µM): 0.85 GR | GR value ([9]; 0.1 µM): 0.735 GR | GR value ([9]; 0.3162 µM): 0.285 GR | GR value ([9]; 1 µM): -0.892 GR | GR value ([10]; 0.0001 µM): 1.02 GR | GR value ([10]; 0.0003162 µM): 1.09 GR | GR value ([10]; 0.001 µM): 1.09 GR | GR value ([10]; 0.003162 µM): 1.08 GR | GR value ([10]; 0.01 µM): 1.02 GR | GR value ([10]; 0.03162 µM): -0.513 GR | GR value ([11]; 0.001 µM): 0.928 GR | GR value ([11]; 0.003162 µM): 0.827 GR | GR value ([11]; 0.01 µM): 0.847 GR | GR value ([11]; 0.03162 µM): 0.727 GR | GR value ([11]; 0.1 µM): 0.637 GR | GR value ([11]; 0.3162 µM): 0.403 GR | GR value ([11]; 1 µM): 0.337 GR | GR value ([11]; 3.162 µM): 0.277 GR | GR value ([11]; 10 µM): -0.101 GR | GR value ([12]; 0.0003162 µM): 1.06 GR | GR value ([12]; 0.001 µM): 0.943 GR | GR value ([12]; 0.003162 µM): 0.931 GR | GR value ([12]; 0.01 µM): 0.747 GR | GR value ([12]; 0.03162 µM): 0.376 GR | GR value ([12]; 0.1 µM): 0.224 GR | GR value ([12]; 0.3162 µM): 0.17 GR | GR value ([12]; 1 µM): 0.228 GR | GR value ([12]; 3.162 µM): 0.213 GR
